Data published in patent publication US6506742B2, “Soluble contraceptive liquid formulation” (Ortho-McNeil Pharmaceutical, Inc., priority 1999, dated 2003).

Assay: Stability study of oral contraceptive liquid formulation stored at room temperature, amount of contraceptive in solution
Assay type: physicochemical
Conditions: solubilized according to the process (EtOH/PEG 400/water)
Source text: A formulation as prepared in Examples 1 or 2, as shown in Table 3 were stored in a container at room temperature and tested periodically for the amount of contraceptive in solution. The reported figure of the contraceptives in solution is in percent of label claim.

Row | Compound | solubility and stability in water
1 | C#C[C@]1(OC(C)=O)CC[C@H]2[C@@H]3CCC4=CC(=NO)CC[C@@H]4[C@H]3CC[C@@]21CC (mixture of isomers) [NGM, Norgestimate] | greatly increased
2 | C#C[C@]1(O)CC[C@H]2[C@@H]3CCc4cc(O)ccc4[C@H]3CC[C@@]21C [EE, ethinyl estradiol] | greatly increased
